Reference: patent US20220152031A1, “PYRIDAZINONES AND METHODS OF USE THEREOF” (Goldfinch Bio, Inc., priority 2019, published 2022)
Like-named read-outs stand apart in the source and are kept apart here.

How the values were obtained:
TRPC5 = target: T1, TRPC5 (Homo sapiens, UniProt Q9UL62); assay: Automated patch clamp assay, HEK293 cells overexpressing TRPC5, current block after rosiglitazone stimulation; format: cell-based; details: whole cell automated patch
T1 construct: expressed in transfected cells
T1 sequence (Q9UL62 1-973): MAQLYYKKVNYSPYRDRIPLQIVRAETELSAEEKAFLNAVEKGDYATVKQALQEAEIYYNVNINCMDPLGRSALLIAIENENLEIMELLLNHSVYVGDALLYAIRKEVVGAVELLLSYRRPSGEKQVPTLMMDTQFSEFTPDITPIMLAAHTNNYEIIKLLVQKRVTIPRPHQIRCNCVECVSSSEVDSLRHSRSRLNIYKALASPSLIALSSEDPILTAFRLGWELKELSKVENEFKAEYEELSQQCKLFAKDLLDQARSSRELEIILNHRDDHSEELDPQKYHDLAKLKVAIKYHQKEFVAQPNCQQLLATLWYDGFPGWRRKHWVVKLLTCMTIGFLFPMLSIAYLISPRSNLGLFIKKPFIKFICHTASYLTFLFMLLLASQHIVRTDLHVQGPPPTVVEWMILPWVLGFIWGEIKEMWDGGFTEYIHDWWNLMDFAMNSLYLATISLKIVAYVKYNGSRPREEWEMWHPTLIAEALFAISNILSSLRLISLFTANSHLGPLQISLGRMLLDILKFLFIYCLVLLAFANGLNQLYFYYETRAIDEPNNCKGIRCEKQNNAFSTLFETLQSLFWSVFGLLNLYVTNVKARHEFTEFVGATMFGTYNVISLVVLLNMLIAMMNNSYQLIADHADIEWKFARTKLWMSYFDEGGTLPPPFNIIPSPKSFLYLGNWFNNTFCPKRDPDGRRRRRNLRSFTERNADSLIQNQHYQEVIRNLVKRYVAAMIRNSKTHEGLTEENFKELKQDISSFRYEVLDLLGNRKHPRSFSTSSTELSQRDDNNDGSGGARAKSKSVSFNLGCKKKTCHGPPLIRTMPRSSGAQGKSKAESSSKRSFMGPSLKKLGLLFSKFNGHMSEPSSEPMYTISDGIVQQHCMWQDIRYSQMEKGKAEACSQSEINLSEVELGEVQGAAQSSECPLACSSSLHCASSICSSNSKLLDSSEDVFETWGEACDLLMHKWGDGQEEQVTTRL

murine podocytes = assay: Murine podocytes with protamine sulfate injury; format: cell-based; details: pretreated 0.1, 1, 10 uM for 20 minutes, 300 ug/mL protamine sulfate 1 hour
Protocol: Conditionally immortalized murine podocytes were differentiated for 14 days in gamma-interferon-free media[Synaptopodin Is a Coincidence Detector of Tyrosine versus Serine/Threonine Phosphorylation for the Modulation of Rho Protein Crosstalk in Podocytes. Buvall L, Wallentin H, Sieber J, Andreeva S, Choi H Y, Mundel P, Greka A. J Am Soc Nephrol. 2017 March; 28(3):837-851. doi: 10.1681/ASN.2016040414. Epub 2016 Sep. 14.]. Murine podocyte cells were pretreated with 0.1, 1, 10 uM of AO or DMSO for 20 minutes then insulted with 300 ug/mL of protamine sulfate (PS) for 1 hour; 3 technical replicate plates were treated for each condition. Murine cells were washed with 1×DPBS −/−, fixed in 4% PFA+4% sucrose for 10 minutes at room temperature, washed 3 times with 1×DPBS −/−, permeabilized with 0.3% triton, and probed for phalloidin, synaptopodin, and DAPI (Proteasomal degradation of Nck1 but not Nck2 regulates RhoA activation and actin dynamics. Buvall L, Rashmi P, Lopez-Rivera E, Andreeva S, Weins A, Wallentin H, Greka A, Mundel P. Nat Commun. (2013) 4:2863. doi: 10.1038/ncomms3863.). Tiled images were acquired using a Zeiss LSM880 Airyscan super resolution confocal microscope using ZEN 2.3. Manual quantitation of cells with or without collapsed actin cytoskeleton were quantified. […]

[1] = tested on: deoxycorticosterone acetate (DOCA)-salt hypertensive rats; assay: Albuminuria in DOCA-salt hypertensive rats; format: in vivo, Sprague Dawley rats
Description: The aim of this study was to evaluate the effects of the TRCP5 inhibitor, AO, to attenuate the development and/or progression of albuminuria in deoxycorticosterone acetate (DOCA)-salt hypertensive rats.
The DOCA-salt hypertensive rat model is a well-established model of mineralocorticoid hypertension with renal dysfunction, characterized by increase levels of urinary protein and albumin excretion. [Schenk et al., “The pathogenesis of DOCA-salt hypertension,” J. Pharmacol. Toxicol. Methods (May 1992) 27(3):161-170; Gomez-Sanchez et al., “Mineralocorticoids, salt and high blood pressure,” Steroids (1996) 61:184-188.]
Six to seven weeks old Sprague Dawley rats were unilaterally nephrectomized; after one-week recovery, rats were implanted with a DOCA pellet (45 mg) and provided tap water containing 0.9% NaCl and 0.2% KCl (Day 1) for a 3 weeks treatment. On Day 1, DOCA-salt rats received one daily dose, subcutaneously (SC), of AO at 30 mg/kg for 3 weeks; control animals for DOCA treatment were administered vehicle or eplerenone, an aldosterone blocker; sham animals, implanted with a silicone-water pellet, were given tap water and received SC administration of the vehicle. Proteinuria, albuminuria and arterial blood pressure as well as body weight were recorded every week.

[2] = DOCA-AO compared to sham animals, week 1 to 3
[3] = DOCA-salt treatment followed by AO

With O=C1CN(c2cn[nH]c(=O)c2Cl)CCN1Cc1ccccc1C(F)(F)F [AO] the IC50 (TRPC5; 80 mV, read-out: TRPC5_QP_XC50_80) was 0.01 to 1000 nM, the IC50 (TRPC5; 100 mV, read-out: TRPC5_QP_X50_100) was 0.01 to 1000 nM and the “murine cells protected from cytoskeletal collapse induced by protamine sulfate” value (murine podocytes) was about 20%. The urinary albumin excretion ([1]; 30 mg/kg SC daily, week 1 to week 3, vs DOCA-vehicle control rats, significance at week 3 (p value 0.0011)) was “attenuated”, the adverse effects ([1]; 30 mg/kg SC once daily for 3 weeks) was “No adverse effects were observed” and the body weight ([1]; DOCA vs DOCA-AO, 30 mg/kg SC once daily for 3 weeks) was “no significant difference”. The “diastolic BP” value [1, 2] was “elevated”, the “mean arterial blood pressure (BP)” value [1, 2] was “elevated” and the “systolic BP” value [1, 2] was “elevated”. For the same molecule, the “urine volume produced per day” value [1, 3] was “elevated” and the water intake [1, 3] was “elevated”.
